# Experimental data from patent publication US20220054513A1, “COMBINATION COMPOSITIONS COMPRISING A BETA-LACTAMASE INHIBITOR” (VenatoRx Pharmaceuticals, Inc., priority 2018, published 2022).
# System: Acinetobacter baumannii-calcoaceticus species complex clinical isolates
# Assay: MIC of triple combinations (Compound 1, sulbactam, meropenem or cefepime), 141 clinical isolates
# Format: cell-based
# Conditions: Acinetobacter
# Source text: For a more comprehensive assessment of the ability of test compounds to potentiate sulbactam in triple combinations with β-lactams additional MIC assays were utilized.
smiles,measurement,setting,value
"CC1(C)[C@H](C(=O)O)N2C(=O)C[C@H]2S1(=O)=O [SUL, Sulbactam]",MIC,,128 µg/mL
same,MIC,"strain 990089, Cmpd 1 at 4 μg/mL in combinations",16 µg/mL
same,MIC,"strain 993131, Cmpd 1 at 4 μg/mL in combinations",32 µg/mL
same,MIC,"strain 993139, Cmpd 1 at 4 μg/mL in combinations",32 µg/mL
same,MIC,"strain 994180, Cmpd 1 at 4 μg/mL in combinations",16 µg/mL
same,MIC,"strain 994181, Cmpd 1 at 4 μg/mL in combinations",16 µg/mL
same,MIC,"strain 995771, Cmpd 1 at 4 μg/mL in combinations",16 µg/mL
same,MIC,"strain 996612, Cmpd 1 at 4 μg/mL in combinations",64 µg/mL
same,MIC,"strain 996707, Cmpd 1 at 4 μg/mL in combinations",32 µg/mL
same,MIC,"strain 996869, Cmpd 1 at 4 μg/mL in combinations",32 µg/mL
same,MIC,"strain 997574, Cmpd 1 at 4 μg/mL in combinations",32 µg/mL
same,MIC,"strain 998107, Cmpd 1 at 4 μg/mL in combinations",16 µg/mL
same,MIC,"strain 998532, Cmpd 1 at 4 μg/mL in combinations",16 µg/mL
same,MIC,"strain 998898, Cmpd 1 at 4 μg/mL in combinations",64 µg/mL
same,MIC,"strain 998907, Cmpd 1 at 4 μg/mL in combinations",32 µg/mL
same,MIC,"strain 999306, Cmpd 1 at 4 μg/mL in combinations",8 µg/mL
same,MIC,"strain 999343, Cmpd 1 at 4 μg/mL in combinations",32 µg/mL
same,MIC,"strain 1001007, Cmpd 1 at 4 μg/mL in combinations",32 µg/mL
same,MIC,"strain 1001143, Cmpd 1 at 4 μg/mL in combinations",32 µg/mL
same,MIC,"strain 1001611, Cmpd 1 at 4 μg/mL in combinations",16 µg/mL
same,MIC,"strain 1002208, Cmpd 1 at 4 μg/mL in combinations",16 µg/mL
same,MIC,"strain 1002247, Cmpd 1 at 4 μg/mL in combinations",64 µg/mL
same,MIC,"strain 1002688, Cmpd 1 at 4 μg/mL in combinations",16 µg/mL
same,MIC,"strain 1002952, Cmpd 1 at 4 μg/mL in combinations",64 µg/mL
same,MIC,"strain 1003557, Cmpd 1 at 4 μg/mL in combinations",8 µg/mL
same,MIC,"strain 1003662, Cmpd 1 at 4 μg/mL in combinations",16 µg/mL
same,MIC,"strain 1003787, Cmpd 1 at 4 μg/mL in combinations",32 µg/mL
same,MIC,"strain 1004867, Cmpd 1 at 4 μg/mL in combinations",64 µg/mL
same,MIC,"strain 1005265, Cmpd 1 at 4 μg/mL in combinations",32 µg/mL
same,MIC,"strain 1005290, Cmpd 1 at 4 μg/mL in combinations",16 µg/mL
same,MIC,"strain 1007660, Cmpd 1 at 4 μg/mL in combinations",32 µg/mL
same,MIC,"strain 1008508, Cmpd 1 at 4 μg/mL in combinations",16 µg/mL
same,MIC,"strain 1008510, Cmpd 1 at 4 μg/mL in combinations",32 µg/mL
same,MIC,"strain 1008730, Cmpd 1 at 4 μg/mL in combinations",32 µg/mL
same,MIC,"strain 1008756, Cmpd 1 at 4 μg/mL in combinations",64 µg/mL
same,MIC,"strain 1010245, Cmpd 1 at 4 μg/mL in combinations",16 µg/mL
same,MIC,"strain 1010383, Cmpd 1 at 4 μg/mL in combinations",32 µg/mL
same,MIC,"strain 1011959, Cmpd 1 at 4 μg/mL in combinations",16 µg/mL
same,MIC,"strain 1013022, Cmpd 1 at 4 μg/mL in combinations",8 µg/mL
same,MIC,"strain 1013035, Cmpd 1 at 4 μg/mL in combinations",16 µg/mL
same,MIC,"strain 1013055, Cmpd 1 at 4 μg/mL in combinations",16 µg/mL
same,MIC,"strain 1013322, Cmpd 1 at 4 μg/mL in combinations",16 µg/mL
same,MIC,"strain 1014143, Cmpd 1 at 4 μg/mL in combinations",32 µg/mL
same,MIC,"strain 1014646, Cmpd 1 at 4 μg/mL in combinations",16 µg/mL
same,MIC,"strain 1014815, Cmpd 1 at 4 μg/mL in combinations",64 µg/mL
same,MIC,"strain 1014866, Cmpd 1 at 4 μg/mL in combinations",32 µg/mL
same,MIC,"strain 1014878, Cmpd 1 at 4 μg/mL in combinations",32 µg/mL
same,MIC,"strain 1014890, Cmpd 1 at 4 μg/mL in combinations",32 µg/mL
same,MIC,"strain 1016545, Cmpd 1 at 4 μg/mL in combinations",16 µg/mL
same,MIC,"strain 1016836, Cmpd 1 at 4 μg/mL in combinations",32 µg/mL
same,MIC,"strain 1017679, Cmpd 1 at 4 μg/mL in combinations",32 µg/mL
same,MIC,"strain 1018109, Cmpd 1 at 4 μg/mL in combinations",4 µg/mL
same,MIC,"strain 1018801, Cmpd 1 at 4 μg/mL in combinations",64 µg/mL
same,MIC,"strain 1018802, Cmpd 1 at 4 μg/mL in combinations",64 µg/mL
same,MIC,"strain 1018804, Cmpd 1 at 4 μg/mL in combinations",32 µg/mL
same,MIC,"strain 1018806, Cmpd 1 at 4 μg/mL in combinations",64 µg/mL
same,MIC,"strain 1018807, Cmpd 1 at 4 μg/mL in combinations",32 µg/mL
same,MIC,"strain 1018851, Cmpd 1 at 4 μg/mL in combinations",64 µg/mL
same,MIC,"strain 1023034, Cmpd 1 at 4 μg/mL in combinations",16 µg/mL
same,MIC,"strain 1023074, Cmpd 1 at 4 μg/mL in combinations",32 µg/mL
same,MIC,"strain 1023207, Cmpd 1 at 4 μg/mL in combinations",16 µg/mL
same,MIC,"strain 1023329, Cmpd 1 at 4 μg/mL in combinations",16 µg/mL
same,MIC,"strain 1024119, Cmpd 1 at 4 μg/mL in combinations",32 µg/mL
same,MIC,"strain 1024215, Cmpd 1 at 4 μg/mL in combinations",16 µg/mL
same,MIC,"strain 1026990, Cmpd 1 at 4 μg/mL in combinations",16 µg/mL
same,MIC,"strain 1026992, Cmpd 1 at 4 μg/mL in combinations",16 µg/mL
same,MIC,"strain 1027234, Cmpd 1 at 4 μg/mL in combinations",8 µg/mL
same,MIC,"strain 1027590, Cmpd 1 at 4 μg/mL in combinations",32 µg/mL
same,MIC,"strain 1027603, Cmpd 1 at 4 μg/mL in combinations",8 µg/mL
same,MIC,"strain 1027748, Cmpd 1 at 4 μg/mL in combinations",8 µg/mL
same,MIC,"strain 1028193, Cmpd 1 at 4 μg/mL in combinations",64 µg/mL
same,MIC,"strain 1029770, Cmpd 1 at 4 μg/mL in combinations",32 µg/mL
same,MIC,"strain 1029913, Cmpd 1 at 4 μg/mL in combinations",16 µg/mL
same,MIC,"strain 1030427, Cmpd 1 at 4 μg/mL in combinations",16 µg/mL
same,MIC,"strain 1030928, Cmpd 1 at 4 μg/mL in combinations",64 µg/mL
same,MIC,"strain 1030945, Cmpd 1 at 4 μg/mL in combinations",32 µg/mL
same,MIC,"strain 1031136, Cmpd 1 at 4 μg/mL in combinations",32 µg/mL
same,MIC,"strain 1031167, Cmpd 1 at 4 μg/mL in combinations",64 µg/mL
same,MIC,"strain 1031177, Cmpd 1 at 4 μg/mL in combinations",16 µg/mL
same,MIC,"strain 1031191, Cmpd 1 at 4 μg/mL in combinations",16 µg/mL
same,MIC,"strain 1031211, Cmpd 1 at 4 μg/mL in combinations",32 µg/mL
same,MIC,"strain 1031238, Cmpd 1 at 4 μg/mL in combinations",32 µg/mL
same,MIC,"strain 1031566, Cmpd 1 at 4 μg/mL in combinations",32 µg/mL
same,MIC,"strain 1032669, Cmpd 1 at 4 μg/mL in combinations",16 µg/mL
same,MIC,"strain 1032761, Cmpd 1 at 4 μg/mL in combinations",64 µg/mL
same,MIC,"strain 1033340, Cmpd 1 at 4 μg/mL in combinations",16 µg/mL
same,MIC,"strain 1033979, Cmpd 1 at 4 μg/mL in combinations",64 µg/mL
same,MIC,"strain 1034048, Cmpd 1 at 4 μg/mL in combinations",32 µg/mL
same,MIC,"strain 1034880, Cmpd 1 at 4 μg/mL in combinations",32 µg/mL
same,MIC,"strain 1034912, Cmpd 1 at 4 μg/mL in combinations",32 µg/mL
same,MIC,"strain 1034913, Cmpd 1 at 4 μg/mL in combinations",32 µg/mL
same,MIC,"strain 1034916, Cmpd 1 at 4 μg/mL in combinations",64 µg/mL
same,MIC,"strain 1034925, Cmpd 1 at 4 μg/mL in combinations",32 µg/mL
same,MIC,"strain 1034931, Cmpd 1 at 4 μg/mL in combinations",16 µg/mL
same,MIC,"strain 1034951, Cmpd 1 at 4 μg/mL in combinations",32 µg/mL
same,MIC,"strain 1034962, Cmpd 1 at 4 μg/mL in combinations",32 µg/mL
same,MIC,"strain 1035144, Cmpd 1 at 4 μg/mL in combinations",32 µg/mL
